In patent US10570131B2, “Heterocyclic compounds and their use in preventing or treating bacterial infections” (MUTABILIS, priority 2015, dated 2020):
Counter-ions that a name gives are not always drawn.

Tests used:
[1] = tested on: E. coli 190317; experiment: MIC of ceftazidime alone and in combination with compounds (synergy), broth microdilution; assay type: cell-based; conditions: MIC of ceftazidime with compound fixed at 4 μg/mL; strain 190317 (TEM-1, SHV-12, CTX-M-15, OXA-1)
[2] = tested on: E. coli 190317; experiment: MIC of compounds alone, broth microdilution; assay type: cell-based; conditions: Escherichia coli; strain 190317 (TEM-1, SHV-12, CTX-M-15, OXA-1); read-out: MIC compounds of the invention alone
Procedure: (§1) Compounds of the present invention were assessed against genotyped bacterial strains alone or in combination with the β-lactam ceftazidime (CAZ). […] Briefly, compounds alone according to the invention were prepared in DMSO and spotted (2 μL each) on sterile polystyrene plates (Corning, 3788). […] Log phase bacterial suspensions were adjusted to a final density of 5×10^5 cfu/mL in cation-adjusted Mueller-Hinton broth (Becton-Dickinson) and added to each well (98 μL). Microplates were incubated for 16-20 h at 35° C. in ambient air. The MIC of the compounds was defined as the lowest concentration of said compounds that prevented bacterial growth as read by visual inspection.

[3] = tested on: E. cloacae P99; experiment: MIC of compounds alone, broth microdilution; assay type: cell-based; conditions: Enterobacter cloacae; strain P99 (AmpC); read-out: MIC compounds of the invention alone
Procedure: as §1

[4] = tested on: P. aeruginosa CIP107051; experiment: MIC of compounds alone, broth microdilution; assay type: cell-based; conditions: Pseudomonas aeruginosa; strain CIP107051 (TEM-24); read-out: MIC compounds of the invention alone
Procedure: as §1

[5] = tested on: E. coli RGN238; experiment: MIC of compounds alone, broth microdilution; assay type: cell-based; conditions: Escherichia coli, RGN238, read-out: MIC compounds of the invention alone
Procedure: as §1

[6] = molecular target: T1, OXA-15 (Pseudomonas aeruginosa, UniProt Q51574); experiment: biochemical
T1 construct: made in house; host or cells: E. coli expression vector
T1 sequence (Q51574 22-275): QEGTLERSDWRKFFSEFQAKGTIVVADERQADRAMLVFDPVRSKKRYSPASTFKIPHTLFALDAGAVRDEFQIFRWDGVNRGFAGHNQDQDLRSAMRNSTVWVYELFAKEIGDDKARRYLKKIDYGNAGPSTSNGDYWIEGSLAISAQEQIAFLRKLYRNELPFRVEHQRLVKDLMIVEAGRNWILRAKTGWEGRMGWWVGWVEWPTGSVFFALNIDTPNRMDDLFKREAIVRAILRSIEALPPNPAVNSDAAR
Procedure: (§2) Method 1: β-lactamase Inhibitory Activity, Determination of IC50 (Table 1)
(§3) Enzyme activity was monitored by spectrophotometric measurement of nitrocefin (NCF—TOKU-E, N005) hydrolysis at 485 nm, at room temperature and in assay buffer A: 100 mM Phosphate pH7, 2% glycerol and 0.1 mg/mL Bovine serum albumin (Sigma, B4287). Enzymes were cloned in E. coli expression vector, expressed and purified in house using classical procedures. To a transparent polystyrene plate (Corning, 3628) were added in each well 5 μL DMSO or inhibitor dilutions in DMSO and 80 μL enzyme in buffer A. Plates were immediately read at 485 nm in a microplate spectrophotometer (BioTek, PowerWave HT) to enable background subtraction. After 30 min of pre-incubation at room temperature, 15 μL of NCF (200 μM final) were finally added in each well. Final enzyme concentrations were 0.1 nM (TEM-1), 0.075 nM (SHV-1), 0.4 nM (CTX-M-15), 1 nM (KPC-2), 0.2 nM (P99 AmpC), 0.2 nM (CMY-37), 0.4 nM (AmpC P. aeruginosa), 0.2 nM (OXA-1), 1.2 nM (OXA-11), 0.4 nM (OXA-15) and 0.3 nM (OXA-48). After 20 min incubation at room temperature, plates were once again read at 485 nm. Enzyme activity was obtained by subtracting the final signal by the background, and was converted to enzyme inhibition using non inhibited wells. IC50 curves were fitted to a classical Langmuir equilibrium model with Hill slope using XLFIT (IDBS).

[7] = molecular target: T2, AmpC (P99) (Enterobacter cloacae, UniProt P05364); experiment: biochemical
T2 construct: made in house; host or cells: E. coli expression vector
T2 sequence (P05364 21-381): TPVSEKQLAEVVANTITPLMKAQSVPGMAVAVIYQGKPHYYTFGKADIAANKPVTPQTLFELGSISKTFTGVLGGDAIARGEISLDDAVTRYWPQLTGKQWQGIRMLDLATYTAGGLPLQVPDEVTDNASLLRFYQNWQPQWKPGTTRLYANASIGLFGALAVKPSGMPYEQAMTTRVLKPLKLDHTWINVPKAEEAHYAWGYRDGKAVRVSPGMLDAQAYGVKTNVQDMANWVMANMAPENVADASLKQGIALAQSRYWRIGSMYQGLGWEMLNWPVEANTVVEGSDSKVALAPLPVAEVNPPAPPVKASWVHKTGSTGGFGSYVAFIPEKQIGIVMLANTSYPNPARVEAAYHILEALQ
Procedure: as §2, §3

[8] = molecular target: T3, AmpC (PAE) (Pseudomonas aeruginosa, UniProt P24735); experiment: biochemical; design: species or system P. aeruginosa
T3 construct: made in house; host or cells: E. coli expression vector
T3 sequence (P24735 27-397): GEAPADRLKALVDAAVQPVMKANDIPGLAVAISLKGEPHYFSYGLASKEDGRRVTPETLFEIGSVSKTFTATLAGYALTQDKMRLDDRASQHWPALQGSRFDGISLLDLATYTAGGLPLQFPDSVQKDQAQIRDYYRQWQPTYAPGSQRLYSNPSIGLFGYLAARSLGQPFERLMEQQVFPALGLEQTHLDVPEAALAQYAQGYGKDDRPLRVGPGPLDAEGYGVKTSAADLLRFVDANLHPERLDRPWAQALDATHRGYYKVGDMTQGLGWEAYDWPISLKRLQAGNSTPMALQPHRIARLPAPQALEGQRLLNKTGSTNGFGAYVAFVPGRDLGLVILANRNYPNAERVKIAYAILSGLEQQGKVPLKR
Procedure: as §2, §3

[9] = tested on: K. oxytoca UFR21; experiment: MIC of ceftazidime alone and in combination with compounds (synergy), broth microdilution; assay type: cell-based; conditions: MIC of ceftazidime with compound fixed at 4 μg/mL; strain UFR21 (TEM-1, CTX-M-15, OXA-48)
[10] = tested on: E. cloacae UFR85; experiment: as above; assay type: cell-based; conditions: MIC of ceftazidime with compound fixed at 4 μg/mL; strain UFR85 (TEM-1, CTX-M-15, derepressed AmpC)
[11] = tested on: K. pneumoniae 6299; experiment: microbe, parasite or virus in culture; assay type: cell-based; conditions: Klebsiella pneumoniae, 6299, read-out: MIC compounds of the invention alone
Procedure: as §1

[12] = tested on: K. pneumoniae BAA-1898; experiment: microbe, parasite or virus in culture; assay type: cell-based; conditions: Klebsiella pneumoniae, BAA1898, read-out: MIC compounds of the invention alone
Procedure: as §1

[13] = tested on: P. aeruginosa CIP105250; experiment: microbe, parasite or virus in culture; assay type: cell-based; conditions: Pseudomonas aeruginosa, CIP105250, read-out: MIC compounds of the invention alone
Procedure: as §1

[14] = tested on: E. coli 131119; experiment: microbe, parasite or virus in culture; assay type: cell-based; conditions: Escherichia coli, 131119, read-out: MIC compounds of the invention alone
Procedure: as §1

[15] = tested on: K. pneumoniae UFR68; assay type: cell-based; conditions: MIC of ceftazidime with compound fixed at 4 μg/mL; strain UFR68 (TEM-1, SHV-11, CTX-M-15, KPC-3)
[16] = tested on: E. cloacae 260508; experiment: MIC of ceftazidime alone and in combination with compounds (synergy), broth microdilution; assay type: cell-based; conditions: MIC of ceftazidime with compound fixed at 4 μg/mL; strain 260508 (TEM-1, CTX-M-15)
[17] = tested on: K. pneumoniae 200047; experiment: as above; assay type: cell-based; conditions: MIC of ceftazidime with compound fixed at 4 μg/mL; strain 200047 (TEM-1, SHV-32, CTX-M-15, OXA-1)
[18] = tested on: E. cloacae P99; experiment: as above; assay type: cell-based; conditions: MIC of ceftazidime with compound fixed at 4 μg/mL; strain P99 (AmpC)
[19] = tested on: P. aeruginosa UFR90; experiment: as above; assay type: cell-based; conditions: MIC of ceftazidime with compound fixed at 4 μg/mL; strain UFR90 (derepressed AmpC, OprD−)
Outline: (§4)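 Broth microdilution, CAMHB, 5×10^5 cfu/mL log-phase inoculum; cpds alone or + ceftazidime; 16-20 h, 35° C, ambient air; MIC = lowest conc. with no visible growth.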

[20] = tested on: P. aeruginosa UFR35; experiment: as above; assay type: cell-based; conditions: MIC of ceftazidime with compound fixed at 4 μg/mL; strain UFR35 (OXA-23)
Outline: as §4

[21] = tested on: P. aeruginosa UFR48; experiment: as above; assay type: cell-based; conditions: MIC of ceftazidime with compound fixed at 4 μg/mL; strain UFR48 (VIM-2)
Outline: as §4

SMILES | MIC, combination of CAZ and compounds of the invention at 4 μg/mL [1] [µg/mL] | MIC [2] [µg/mL] | MIC [3] [µg/mL] | MIC [4] [µg/mL] | MIC [5] [µg/mL] | IC50 [6] [nM] | IC50 [7] [nM] | IC50 [8] [nM] | MIC, combination of CAZ and compounds of the invention at 4 μg/mL [9] [µg/mL] | MIC, combination of CAZ and compounds of the invention at 4 μg/mL [10] [µg/mL] | MIC [11] [µg/mL] | MIC [12] [µg/mL] | MIC [13] [µg/mL] | MIC [14] [µg/mL] | MIC, combination of CAZ and compounds of the invention at 4 μg/mL [15] [µg/mL] | MIC, combination of CAZ and compounds of the invention at 4 μg/mL [16] [µg/mL] | MIC, combination of CAZ and compounds of the invention at 4 μg/mL [17] [µg/mL] | MIC, combination of CAZ and compounds of the invention at 4 μg/mL [18] [µg/mL] | MIC, combination of CAZ and compounds of the invention at 4 μg/mL [19] [µg/mL] | MIC, combination of CAZ and compounds of the invention at 4 μg/mL [20] [µg/mL] | further results
CNC(=O)CON=C1C[C@@H](C(N)=O)N2C[C@@H]1N(OS(=O)(=O)[O-])C2=O.[Na+] (mixture of isomers) [Example 2, sodium [(2S,5S)-2-carbamoyl-4-[2-(methylamino)-2-oxo-ethoxy]imino-7-oxo-1,6-diazabicyclo[3.2.1]octan-6-yl] sulfate] | ≤0.125 | 4 | > 32 | > 32 | > 32 | 0.84 | 3.2 | 110 | 2 | 1 | > 32 | > 32 | > 32 | 8 | 64 | 1 | 0.5 | 4 | – | – | –
NC[C@@H]1CC(=NOCC(N)=O)[C@@H]2CN1C(=O)N2OS(=O)(=O)O (mixture of isomers) [Example 5, sodium and 2,2,2-trifluroacetate [(2S,5S)-4-(2-amino-2-oxo-ethoxy)imino-2-(azaniumylmethyl)-7-oxo-1,6-diazabicyclo[3.2.1]octan-6-yl] sulfate] | <0.25 | 0.25 | 0.063 | 4 | > 32 | 8 | 11000 | 12000 | ≤0.25 | ≤0.25 | > 32 | > 32 | 32 | > 32 | 1 | <0.25 | ≤0.25 | <0.25 | <0.25 | <0.25 | MIC, combination of CAZ and compounds of the invention at 4 μg/mL [21]: <0.25 µg/mL
NC[C@@H]1CC(=O)[C@@H]2CN1C(=O)N2OS(=O)(=O)O [Example 6, 2,2,2-trifluroacetate and sodium [(2S,5S)-2-(azaniumylmethyl)-4,7-dioxo-1,6-diazabicyclo[3.2.1]octan-6-yl] sulfate] | <0.25 | 1 | 1 | 8 | > 32 | 68 | 6400 | 38000 | ≤0.25 | ≤0.25 | > 32 | > 32 | 16 | 2 | 1 | ≤0.25 | 1 | <0.25 | <0.25 | <0.25 | MIC, combination of CAZ and compounds of the invention at 4 μg/mL [21]: ≤0.25 µg/mL
